Target: Integrin alpha-4/beta-1 (Homo sapiens, UniProt P05556+P13612)
Assay: Inhibition of human integrin alpha-4-beta-1-mediated MOLT4 cell adhesion to biotin-conjugated CS-1 peptide
Format: cell-based, MOLT-4

Integrin alpha-4/beta-1, sequence (P05556 whole entry): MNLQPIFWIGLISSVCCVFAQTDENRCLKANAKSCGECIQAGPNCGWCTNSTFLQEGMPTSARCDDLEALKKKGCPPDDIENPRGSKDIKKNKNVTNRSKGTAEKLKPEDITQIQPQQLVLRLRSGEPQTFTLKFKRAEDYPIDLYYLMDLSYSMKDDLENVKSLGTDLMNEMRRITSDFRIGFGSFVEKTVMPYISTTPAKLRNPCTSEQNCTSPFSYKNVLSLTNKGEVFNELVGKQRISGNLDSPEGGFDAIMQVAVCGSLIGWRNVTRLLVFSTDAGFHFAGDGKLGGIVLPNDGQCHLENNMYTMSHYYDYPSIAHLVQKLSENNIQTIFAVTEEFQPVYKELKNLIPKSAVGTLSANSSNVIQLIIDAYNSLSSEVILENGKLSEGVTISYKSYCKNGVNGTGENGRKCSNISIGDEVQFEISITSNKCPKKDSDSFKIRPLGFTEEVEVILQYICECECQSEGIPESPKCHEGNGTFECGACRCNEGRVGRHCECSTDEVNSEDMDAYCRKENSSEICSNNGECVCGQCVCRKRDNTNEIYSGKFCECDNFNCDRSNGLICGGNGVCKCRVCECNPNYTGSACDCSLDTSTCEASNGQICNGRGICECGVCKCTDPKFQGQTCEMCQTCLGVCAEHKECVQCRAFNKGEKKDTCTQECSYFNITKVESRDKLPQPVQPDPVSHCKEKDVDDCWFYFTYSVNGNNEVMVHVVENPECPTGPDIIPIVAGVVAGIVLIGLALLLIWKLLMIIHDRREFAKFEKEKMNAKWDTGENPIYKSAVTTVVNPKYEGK
Integrin alpha-4/beta-1, sequence (P13612 whole entry): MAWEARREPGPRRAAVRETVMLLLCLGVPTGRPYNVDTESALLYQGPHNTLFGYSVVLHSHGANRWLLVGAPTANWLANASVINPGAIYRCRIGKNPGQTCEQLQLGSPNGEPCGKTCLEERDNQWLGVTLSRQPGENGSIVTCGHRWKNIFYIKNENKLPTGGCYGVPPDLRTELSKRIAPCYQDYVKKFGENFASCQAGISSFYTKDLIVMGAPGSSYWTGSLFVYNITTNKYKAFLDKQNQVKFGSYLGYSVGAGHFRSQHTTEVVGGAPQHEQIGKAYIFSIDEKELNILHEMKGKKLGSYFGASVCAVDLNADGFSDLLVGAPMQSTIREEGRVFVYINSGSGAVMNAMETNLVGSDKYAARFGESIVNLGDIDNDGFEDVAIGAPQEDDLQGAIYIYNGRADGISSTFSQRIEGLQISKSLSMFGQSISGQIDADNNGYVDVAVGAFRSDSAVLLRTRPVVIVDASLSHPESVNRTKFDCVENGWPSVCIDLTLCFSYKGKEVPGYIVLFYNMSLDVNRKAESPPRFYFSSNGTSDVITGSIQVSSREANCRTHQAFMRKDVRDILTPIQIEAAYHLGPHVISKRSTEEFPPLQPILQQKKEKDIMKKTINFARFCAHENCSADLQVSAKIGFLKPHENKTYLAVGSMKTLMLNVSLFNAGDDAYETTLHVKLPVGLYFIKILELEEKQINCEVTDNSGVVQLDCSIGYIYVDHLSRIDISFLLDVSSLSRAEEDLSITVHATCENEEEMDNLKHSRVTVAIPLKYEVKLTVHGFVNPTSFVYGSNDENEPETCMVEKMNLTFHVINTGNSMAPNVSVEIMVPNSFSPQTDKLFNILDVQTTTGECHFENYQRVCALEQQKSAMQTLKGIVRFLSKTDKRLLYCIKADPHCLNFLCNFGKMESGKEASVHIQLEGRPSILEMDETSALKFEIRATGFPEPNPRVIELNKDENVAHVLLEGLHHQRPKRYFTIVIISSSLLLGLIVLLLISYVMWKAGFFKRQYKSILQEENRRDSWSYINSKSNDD

Row | IC50 | SMILES
1 | 0.305 nM | NC(=O)C1(NC(=O)[C@H](CCCC(=O)O)NC(=O)[C@H](CCCCNC(=O)/C=C/c2cccnc2)NC(=O)Cc2ccc(Nc3nc4ccccc4[nH]3)cc2)CCCCC1
2 | 378 nM | NC(=O)C1(NC(=O)[C@@H](CCCC(=O)O)NC(=O)[C@@H](CCCCNC(=O)/C=C/c2cccnc2)NC(=O)CCc2ccc(Nc3nc4cc(Br)ccc4[nH]3)cc2)CCCCC1
3 | 346 nM | NC(=O)C1(NC(=O)[C@@H](CCCC(=O)O)NC(=O)[C@@H](CCCCNC(=O)/C=C/c2cccnc2)NC(=O)c2ccc(Nc3nc4ccccc4s3)cc2)CCCCC1
4 | 0.0525 nM | NC(=O)C1(NC(=O)[C@@H](CCCC(=O)O)NC(=O)[C@@H](CCCCNC(=O)/C=C/c2cccnc2)NC(=O)Cc2ccc(Nc3nc4ccccc4s3)cc2)CCCCC1

— ChEMBL document CHEMBL1139355, “Selectively targeting T- and B-cell lymphomas: a benzothiazole antagonist of alpha4beta1 integrin” (J Med Chem, 2009)
